± gives the standard deviation of the averaged measurements.

The subject of the series is MCF7. Description: HRG-induced Akt activation (dPAkt = log2 pAkt/Akt HRG-stimulated minus log2 pAkt/Akt basal) (log2 ratio difference); higher = stronger HRG-induced Akt(T308) phosphorylation. Conditions: miRNA mimic concentration 10 nM; time after transfection 72 h; heregulin 10 ng/ml; stimulation time 1 h. The method, boiled down: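 Akt activation induced by heregulin was calculated as the difference between stimulated and unstimulated log ratios of phospho-Akt to total Akt, then averaged across replicates. The ratio was taken as log2(pAkt/Akt) from In-Cell Western readings of phospho-Akt(T308) and total Akt on an Odyssey, corrected for column-wise fixation decay. Before reading, MCF7 cells ([…], 96-well plates) transfected with 879 miRNA mimics at 10 nM final via Lipofectamine RNAiMax were, after 72 h, given 10 ng/ml heregulin-beta1 for 1 h or no stimulus, then fixed with 4% PFA. Two biological replicates were run.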
As to AUCAUAGAGGAAAAUCCACGU, the “HRG-induced Akt activation (log2)” value was found to be 2.13 ± 0.46.
With AUCAUAGAGGAAAAUCCAUGUU the figure was 1.64 ± 1.
AUCAUGAUGGGCUCCUCGGUGU: the “HRG-induced Akt activation (log2)” value worked out at 1.41 ± 0.22.
For the sequence AUCCCACCUCUGCCACCA, the “HRG-induced Akt activation (log2)” value is 1.2 ± 0.059.
With AUCCCUUGCAGGGGCUGUUGGGU the figure was 1.02 ± 0.69; with AUCCGCGCUCUGACUCUCUGCC, 1.53 ± 0.14; with AUCCUUGCUAUCUGGGUGCUA, 1.94 ± 0.15.
With AUCGCUGCGGUUGCGAGCGCUGU, the “HRG-induced Akt activation (log2)” value is 1.63 ± 0.063.
With AUCGGGAAUGUCGUGUCCGCCC, the “HRG-induced Akt activation (log2)” value stood at 1.6 ± 0.039.
AUCGUGCAUCCCUUUAGAGUGU: the “HRG-induced Akt activation (log2)” value was determined as 1.54 ± 0.1.
With AUCGUGCAUCCUUUUAGAGUGU the figure was 1.47 ± 0.099; with AUCUGGAGGUAAGAAGCACUUU, 1.83 ± 0.33; with AUGACCUAUGAAUUGACAGAC, 1.43 ± 0.063.
With AUGAUCCAGGAACCUGCCUCU the figure was 2.49 ± 0.056.
As for AUGCACCUGGGCAAGGAUUCUG, the “HRG-induced Akt activation (log2)” value is 1.77 ± 0.18.
With AUGCUGACAUAUUUACUAGAGG the figure was 0.706 ± 0.25; with AUGGAGAUAGAUAUAGAAAU, 1.51 ± 0.11.
As to AUGGAUAAGGCUUUGGCUU, the “HRG-induced Akt activation (log2)” value worked out at 1.72 ± 0.027.
Consider AUGGGUGAAUUUGUAGAAGGAU, for which the “HRG-induced Akt activation (log2)” value was 1.81 ± 0.12.
With AUGGUACCCUGGCAUACUGAGU the figure was 1.62 ± 0.59; with AUGGUUCCGUCAAGCACCAUGG, 1.87 ± 0.22.
With AUGUAGGGCUAAAAGCCAUGGG the figure was 1.01 ± 0.24; with AUGUAUAAAUGUAUACACAC, 1.42 ± 0.5.
Consider AUGUAUGUGUGCAUGUGCAUG, for which the “HRG-induced Akt activation (log2)” value is 1.62 ± 0.4.
With AUUCCUAGAAAUUGUUCAUA the figure was 1.18 ± 0.4.
As to AUUCUAAUUUCUCCACGUCUUU, the “HRG-induced Akt activation (log2)” value is 1.44 ± 0.29.
Consider AUUCUGCAUUUUUAGCAAGUUC, for which the “HRG-induced Akt activation (log2)” value came out at 1.8 ± 0.078.
For the sequence AUUGACACUUCUGUGAGUAGA, the “HRG-induced Akt activation (log2)” value amounted to 1.55 ± 0.046.
On to AUUGAUCAUCGACACUUCGAACGCAAU, for which the “HRG-induced Akt activation (log2)” value was found to be 1.383 ± 0.0097.
AUUUGUGCUUGGCUCUGUCAC: the “HRG-induced Akt activation (log2)” value is 0.917 ± 0.31.
With CAAAAACCACAGUUUCUUUUGC, the “HRG-induced Akt activation (log2)” value worked out at 0.997 ± 0.23.
With CAAAAAUCUCAAUUACUUUUGC the figure was 2.04 ± 0.028; with CAAAACGUGAGGCGCUGCUAU, 1.27 ± 0.087; with CAAAACUGGCAAUUACUUUUGC, 1.5 ± 0.052.
With CAAAAGUAAUUGUGGAUUUUGU the figure was 1.5 ± 0.065.
In the case of CAAACCACACUGUGGUGUUAGA, the “HRG-induced Akt activation (log2)” value was determined as 1.09 ± 0.76.
For the sequence CAAAGAAUUCUCCUUUUGGGCU, the “HRG-induced Akt activation (log2)” value amounted to 1.74 ± 0.013.
As for CAAAGAGGAAGGUCCCAUUAC, the “HRG-induced Akt activation (log2)” value was 2.01 ± 0.3.
For CAAAGCGCUCCCCUUUAGAGGU, the “HRG-induced Akt activation (log2)” value stood at 1.02 ± 0.045.
As for CAAAGCGCUUCCCUUUGGAGC, the “HRG-induced Akt activation (log2)” value stood at 1.259 ± 0.0069.
As to CAAAGCGCUUCUCUUUAGAGUGU, the “HRG-induced Akt activation (log2)” value is 0.7 ± 0.83.
With CAAAGGUAUUUGUGGUUUUUG the figure was 1.74 ± 0.066.
With CAAAGUGCCUCCCUUUAGAGUG the figure was 0.831 ± 0.84; with CAAAGUGCUCAUAGUGCAGGUAG, 1.34 ± 0.39; with CAAAGUGCUGUUCGUGCAGGUAG, 1.46 ± 0.35.
As for CAAAGUGCUUACAGUGCAGGUAG, the “HRG-induced Akt activation (log2)” value was determined as 1.23 ± 0.17.
With CAAAGUUUAAGAUCCUUGAAGU the figure was 1.08 ± 0.53; with CAAAUUCGUAUCUAGGGGAAUA, 1.57 ± 0.036; with CAACAAAUCACAGUCUGCCAUA, 1.2 ± 0.27.
With CAACAAAUCCCAGUCUACCUAA the figure was 1.51 ± 0.076; with CAACACCAGUCGAUGGGCUGU, 1.34 ± 0.34; with CAACCUGGAGGACUCCAUGCUG, 0.949 ± 0.19.
With CAACGGAAUCCCAAAAGCAGCUG the figure was 1.51 ± 0.045; with CAACUAGACUGUGAGCUUCUAG, 2.04 ± 0.049.
Turning to CAAGAACCUCAGUUGCUUUUGU, the “HRG-induced Akt activation (log2)” value was 1.15 ± 0.34.
As for CAAGCUCGCUUCUAUGGGUCUG, the “HRG-induced Akt activation (log2)” value stood at 1.18 ± 0.12.
Regarding CAAGCUCGUGUCUGUGGGUCCG, the “HRG-induced Akt activation (log2)” value was found to be 0.995 ± 0.35.
With CAAGCUUGUAUCUAUAGGUAUG the figure was 1.59 ± 0.17.
